Experimental data from patent US12534450B2, “Methods and compositions for targeting PD-L1” (Aligos Therapeutics, Inc., priority 2021, dated 2026).

Experiments:
PD-1/PD-L1 PPI = PD-1/PD-L1 PPI (Homo sapiens, UniProt Q9NZQ7); assay: PDL1/PD1 Binding Assay; conditions: PDL1-6×His 0.3 nM, PD1-Fc-Avi-Biotin 2.5 nM, Acceptor/Donor beads, Envision reader
Procedure: Compounds to be tested were serially diluted in DMSO, and further diluted in assay buffer (25 mM Hepes pH 7.4, 150 mM NaCl, 0.005% Tween 20, BSA 0.01%). Diluted compounds were added to the wells with final concentration of DMSO at 1%. PDL1-6×His protein was added to the wells, mixed well with compound. The plates were incubated for 30 min at room temperature. PD1-Fc-Avi-Biotin protein was added to the wells. Final concentration of PDL1 and PD1 protein is 0.3 nM and 2.5 nM, respectively. After a binding time of 30 min at room temperature, Anti-6×His Acceptor beads (final concentration 20 ug/ml) were added to the wells, and the incubation continued for 1 h. Streptavidin Donor beads (final concentration 20 ug/mL) were added at reduced light. The plates were sealed with foil and incubated in the dark for additional 1 h or overnight before reading on an Envision reader. The IC50 values were determined by fitting the curves using a four-parameter equation in Graphpad Prism 8.

PD-1/PD-L1 interaction = assay: PD-1/PD-L1 NFAT Reporter Assay (co-culture of Jurkat T cells overexpressing PD-1 and PD-L1 expressing CHO cells); assay type: cell-based; conditions: Homo sapiens, Jurkat, 6 h, co-culture 6 hrs at 37° C., NFAT-mediated luciferase activity
Procedure: Blocking the PD-1/PD-L1 interaction will release the inhibitory signal and results in TCR signaling and NFAT-mediated luciferase activity.
CHO cells expressing surface-bound anti-CD3 antibodies and PD-L1 were first seeded overnight and treated with the compounds. Jurkat cells overexpressing PD-1 and a luciferase construct under NFAT promoter were then immediately seeded on the monolayer of CHO cells. The co-culture was then incubated for 6 hrs at 37° C. Luciferase activity was assessed by adding the ONE-Glo reagent and measuring luminescence with a plate reader. EC50 values were determined from the fit of the dose-response curves.

Chain of PD-1/PD-L1 PPI (Q9NZQ7 19-238 limits assumed): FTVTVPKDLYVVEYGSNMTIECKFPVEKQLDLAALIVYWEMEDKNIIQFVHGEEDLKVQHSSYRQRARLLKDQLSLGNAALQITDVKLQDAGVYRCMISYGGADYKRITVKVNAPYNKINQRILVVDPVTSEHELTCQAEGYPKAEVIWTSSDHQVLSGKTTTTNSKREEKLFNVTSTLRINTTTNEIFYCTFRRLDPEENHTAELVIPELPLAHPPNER

| SMILES | IC50 (PD-1/PD-L1 PPI) [nM] | EC50 (PD-1/PD-L1 interaction) [nM] |
| --- | --- | --- |
| COc1nc(-c2cccc(-c3cccc(NC(=O)c4cn(C)c(=O)n(C)c4=O)c3C)c2Cl)cc2c1[C@@H](N[C@@H]1CCOC[C@@H]1O)CC2 (single isomer, unassigned) [Compound A-40] | ≤ 10 | ≤ 10 |
| COc1nc(-c2cccc(-c3cccc(NC(=O)c4cn(C)c(=O)n(C)c4=O)c3C)c2C)cc2c1[C@@H](N[C@@H]1CCOC[C@@H]1O)CC2 (single isomer, unassigned) [Compound A-41] | ≤ 10 | ≤ 10 |
| COc1nc(-c2cccc(-c3cccc(NC(=O)c4cn(C)c(=O)n(C)c4=O)c3C)c2F)cc2c1[C@@H](N[C@@H]1CCOC[C@@H]1O)CC2 (single isomer, unassigned) [Compound A-42] | ≤ 10 | 10 to 100 |
| COc1nc(-c2cccc(-c3cccc(NC(=O)c4cn(C)c(=O)n(C)c4=O)c3C)c2C)cc2c1[C@@H](NC[C@@H]1CCC(=O)N1)CO2 (single isomer, unassigned) [Compound A-49] | ≤ 10 | 10 to 100 |
| COc1nc(-c2cccc(-c3cccc(NC(=O)c4cn(C)c(=O)n(C)c4=O)c3C)c2Cl)cc2c1[C@H](N1CC3(CN(C(C)=O)C3)C1)CC2 (single isomer, unassigned) [Compound A-72] | ≤ 10 | 10 to 100 |
| COc1nc(-c2cccc(-c3cc(F)cc(NC(=O)c4nn(C)c(=O)n(C)c4=O)c3C)c2C)cc2c1[C@@H](N[C@@H]1CCOC[C@@H]1O)CC2 (single isomer, unassigned) [Compound A-74] | ≤ 10 | 10 to 100 |
| COc1nc(-c2cccc(-c3cccc(NC(=O)c4nn(C)c(=O)n(C)c4=O)c3C)c2C)cc2c1[C@@H](N[C@@H]1CCOC[C@@H]1O)CC2 (single isomer, unassigned) [Compound A-75] | ≤ 10 | 10 to 100 |
| COc1nc(-c2cccc(-c3cccc(NC(=O)c4cn(C)c(=O)n(C)c4=O)c3C)c2C)cc2c1[C@@H](N1CC(O)C1)CC2 (single isomer, unassigned) [Compound A-79] | 10 to 100 | > 5000 |
| COc1nc(-c2cccc(-c3cccc(NC(=O)c4cn(C)c(=O)n(C)c4=O)c3C)c2C)cc2c1[C@H](N1CC(O)C1)CC2 (single isomer, unassigned) [Compound A-80] | ≤ 10 | 10 to 100 |
| COc1nc(-c2cccc(-c3cccc(NC(=O)c4cn(C)c(=O)n(C)c4=O)c3C)c2C)cc2c1[C@@H](N1CC(OC)C1)CC2 (single isomer, unassigned) [Compound A-83] | ≤ 10 | 10 to 100 |
| COc1nc(-c2cccc(-c3cccc(NC(=O)c4cn(C)c(=O)n(C)c4=O)c3C)c2C)cc2c1[C@H](N1CC(OC)C1)CC2 (single isomer, unassigned) [Compound A-84] | 10 to 100 | > 5000 |
| CCOC(=O)C1CN([C@H]2CCc3cc(-c4cccc(-c5cccc(NC(=O)c6cn(C)c(=O)n(C)c6=O)c5Cl)c4Cl)nc(OC)c32)C1 (single isomer, unassigned) [Compound A-85] | ≤ 10 | 10 to 100 |
| CCOC(=O)C1CN([C@@H]2CCc3cc(-c4cccc(-c5cccc(NC(=O)c6cn(C)c(=O)n(C)c6=O)c5Cl)c4Cl)nc(OC)c32)C1 (single isomer, unassigned) [Compound A-86] | 100 to 1000 | > 5000 |
| CCOC(=O)C1CN([C@H]2CCc3cc(-c4cccc(-c5cccc(NC(=O)c6ccnn(C)c6=O)c5Cl)c4Cl)nc(OC)c32)C1 (single isomer, unassigned) [Compound A-87] | ≤ 10 | 10 to 100 |
| CCOC(=O)C1CN([C@H]2CCc3cc(-c4cccc(-c5cccc(NC(=O)c6ccnn(C)c6=O)c5C)c4Cl)nc(OC)c32)C1 (single isomer, unassigned) [Compound A-88] | ≤ 10 | 10 to 100 |

Further lines, results first:

| IC50 (PD-1/PD-L1 PPI) [nM] | EC50 (PD-1/PD-L1 interaction) [nM] | SMILES |
| --- | --- | --- |
| ≤ 10 | ≤ 10 | COc1nc(-c2cccc(-c3cccc(NC(=O)c4cn(C)c(=O)n(C)c4=O)c3Cl)c2Cl)cc2c1[C@@H](NC[C@@H]1CCC(=O)N1)CC2 (single isomer, unassigned) [Compound A-1] |
| ≤ 10 | 10 to 100 | COc1nc(-c2cccc(-c3cccc(NC(=O)c4cn(C)c(=O)n(C)c4=O)c3C)c2Cl)cc2c1[C@@H](NC[C@@H]1CCC(=O)N1)CO2 (single isomer, unassigned) [Compound A-19] |
| ≤ 10 | 10 to 100 | COc1nc(-c2cccc(-c3cccc(NC(=O)c4cn(C)c(=O)n(C)c4=O)c3Cl)c2Cl)cc2c1[C@@H](N1CC3(CCC(=O)N3)C1)CC2 (single isomer, unassigned) [Compound A-20] |
| ≤ 10 | 100 to 1000 | COc1nc(-c2cccc(-c3cccc(NC(=O)c4cn(C)c(=O)n(C)c4=O)c3Cl)c2Cl)cc2c1[C@@H](N1CC3(CCNC3=O)C1)CC2 (single isomer, unassigned) [Compound A-21] |
| ≤ 10 | ≤ 10 | COc1nc(-c2cccc(-c3cccc(NC(=O)c4cn(C)c(=O)n(C)c4=O)c3Cl)c2Cl)cc2c1[C@H](N1CC3(CCNC3=O)C1)CC2 (single isomer, unassigned) [Compound A-22] |
| ≤ 10 | ≤ 10 | COc1nc(-c2cccc(-c3cccc(NC(=O)c4cn(C)c(=O)n(C)c4=O)c3Cl)c2Cl)cc2c1[C@H](N1CC3(CN(C(C)=O)C3)C1)CC2 (single isomer, unassigned) [Compound A-23] |
| ≤ 10 | ≤ 10 | COc1nc(-c2cccc(-c3cccc(NC(=O)c4cn(C)c(=O)n(C)c4=O)c3Cl)c2Cl)cc2c1[C@H](N1CC(OC)C1)CC2 (single isomer, unassigned) [Compound A-25] |
| ≤ 10 | ≤ 10 | COc1nc(-c2cccc(-c3cccc(NC(=O)c4cn(C)c(=O)n(C)c4=O)c3Cl)c2Cl)cc2c1[C@H](N1CC(O)C1)CC2 (single isomer, unassigned) [Compound A-27] |
| ≤ 10 | ≤ 10 | COc1nc(-c2cccc(-c3cccc(NC(=O)c4cn(C)c(=O)n(C)c4=O)c3C)c2Cl)cc2c1[C@H](N1CC(O)C1)CC2 (single isomer, unassigned) [Compound A-28] |
| ≤ 10 | ≤ 10 | COc1nc(-c2cccc(-c3cccc(NC(=O)c4cn(C)c(=O)n(C)c4=O)c3Cl)c2Cl)cc2c1[C@@H](N[C@@H]1CCOC[C@@H]1O)CC2 (single isomer, unassigned) [Compound A-29] |
| ≤ 10 | 100 to 1000 | COc1nc(-c2cccc(-c3cccc(NC(=O)c4cn(C)c(=O)n(C)c4=O)c3Cl)c2Cl)cc2c1[C@H](N[C@@H]1CCOC[C@@H]1O)CC2 (single isomer, unassigned) [Compound A-30] |
| ≤ 10 | 1000 to 10000 | COc1nc(-c2cccc(-c3cccc(NC(=O)c4cn(C)c(=O)n(C)c4=O)c3Cl)c2C)cc2c1[C@H](N[C@@H]1CCOC[C@@H]1O)CC2 (single isomer, unassigned) [Compound A-31] |
| ≤ 10 | ≤ 10 | COc1nc(-c2cccc(-c3cccc(NC(=O)c4cn(C)c(=O)n(C)c4=O)c3C)c2Cl)cc2c1[C@H](N[C@@H]1CCOC[C@@H]1O)CC2 (single isomer, unassigned) [Compound A-33] |
| ≤ 10 | ≤ 10 | COc1nc(-c2cccc(-c3cccc(NC(=O)c4cn(C)c(=O)n(C)c4=O)c3Cl)c2C)cc2c1[C@@H](N[C@@H]1CCOC[C@@H]1O)CC2 (single isomer, unassigned) [Compound A-39] |
